Measured values from the supplement of paper PMC10307832.

Experiments:
Assay in all cases: relative viability (nuclei count vs DMSO), 5 days (fraction); higher = more cells survive
[1] = tested on: SK-MES-1
Procedure, shortened: (§1)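 Five library-drug doses in √10 steps were combined with a fixed anchor-drug dose, or a single drug was given alone, by pin tool to lung cancer cell lines in 1536-well plates the day after seeding. Nuclei were stained and counted after 5 days. Relative viability is the nuclei count in treated wells over that in vehicle wells, taken as the median of duplicate plates.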

[2] = tested on: EMC-BAC-2
Procedure, shortened: as §1

[3] = tested on: RERF-LC-KJ
Procedure, shortened: as §1

[4] = tested on: NCI-H2087
Procedure, shortened: as §1

[5] = tested on: HARA
Procedure, shortened: as §1

[6] = tested on: NCI-H2126
Procedure, shortened: as §1

[7] = tested on: LXF-289
Procedure, shortened: as §1

[8] = tested on: UMC-11
Procedure, shortened: as §1

[9] = tested on: HCC-78
Procedure, shortened: as §1

[10] = tested on: HOP-62
Procedure, shortened: as §1

[11] = tested on: SW 900
Procedure, shortened: as §1

[12] = tested on: LOU-NH91
Procedure, shortened: as §1

[13] = tested on: NCI-H1993
Procedure, shortened: as §1

[14] = tested on: NCI-H650
Procedure, shortened: as §1

[15] = tested on: LU99A
Procedure, shortened: as §1

[16] = tested on: BEN
Procedure, shortened: as §1

[17] = tested on: NCI-H1395
Procedure, shortened: as §1

[18] = tested on: NCI-H1563
Procedure, shortened: as §1

[19] = tested on: NCI-H2170
Procedure, shortened: as §1

[20] = tested on: 201T
Procedure, shortened: as §1

[21] = tested on: LC-2-ad
Procedure, shortened: as §1

[22] = tested on: H3255
Procedure, shortened: as §1

[23] = tested on: COR-L 105
Procedure, shortened: as §1

CCNC(=O)c1noc(-c2cc(C(C)C)c(O)cc2O)c1-c1ccc(CN2CCOCC2)cc1 [Luminespib] + COc1cccc2cc(-c3nc([C@H]4CC[C@H](C(=O)O)CC4)n4ncnc(N)c34)[nH]c12 [OSI-027] (partner 0.5 µM)
relative viability ([1]; first compound 0.002 µM): 0.609
relative viability ([1]; first compound 0.006325 µM): 0.486
relative viability ([1]; first compound 0.02 µM): 0.2
relative viability ([1]; first compound 0.06325 µM): 0.11
relative viability ([1]; first compound 0.2 µM): 0.131
relative viability ([2]; first compound 0.002 µM): 0.426
relative viability ([2]; first compound 0.006325 µM): 0.354
relative viability ([2]; first compound 0.02 µM): 0.415
relative viability ([2]; first compound 0.06325 µM): 0.348
relative viability ([2]; first compound 0.2 µM): 0.184
relative viability ([3]; first compound 0.002 µM): 0.584
relative viability ([3]; first compound 0.006325 µM): 0.536
relative viability ([3]; first compound 0.02 µM): 0.346
relative viability ([3]; first compound 0.06325 µM): 0.207
relative viability ([3]; first compound 0.2 µM): 0.195
relative viability ([4]; first compound 0.002 µM): 0.553
relative viability ([4]; first compound 0.006325 µM): 0.454
relative viability ([4]; first compound 0.02 µM): 0.157
relative viability ([4]; first compound 0.06325 µM): 0.125
relative viability ([4]; first compound 0.2 µM): 0.0972
relative viability ([5]; first compound 0.002 µM): 0.511
relative viability ([5]; first compound 0.006325 µM): 0.281
relative viability ([5]; first compound 0.02 µM): 0.381
relative viability ([5]; first compound 0.06325 µM): 0.0542
relative viability ([5]; first compound 0.2 µM): 0.0658
relative viability ([6]; first compound 0.002 µM): 0.72
relative viability ([6]; first compound 0.006325 µM): 0.651
relative viability ([6]; first compound 0.02 µM): 0.533
relative viability ([6]; first compound 0.06325 µM): 0.226
relative viability ([6]; first compound 0.2 µM): 0.223
relative viability ([7]; first compound 0.002 µM): 0.751
relative viability ([7]; first compound 0.006325 µM): 0.762
relative viability ([7]; first compound 0.02 µM): 0.759
relative viability ([7]; first compound 0.06325 µM): 0.163
relative viability ([7]; first compound 0.2 µM): 0.0755
relative viability ([8]; first compound 0.002 µM): 0.538
relative viability ([8]; first compound 0.006325 µM): 0.42
relative viability ([8]; first compound 0.02 µM): 0.303
relative viability ([8]; first compound 0.06325 µM): 0.224
relative viability ([8]; first compound 0.2 µM): 0.207
relative viability ([9]; first compound 0.002 µM): 0.361
relative viability ([9]; first compound 0.006325 µM): 0.323
relative viability ([9]; first compound 0.06325 µM): 0.412
relative viability ([9]; first compound 0.2 µM): 0.301
relative viability ([10]; first compound 0.002 µM): 0.83
relative viability ([10]; first compound 0.006325 µM): 0.758
relative viability ([10]; first compound 0.02 µM): 0.648
relative viability ([10]; first compound 0.06325 µM): 0.428
relative viability ([10]; first compound 0.2 µM): 0.111
relative viability ([11]; first compound 0.002 µM): 0.502
relative viability ([11]; first compound 0.006325 µM): 0.471
relative viability ([11]; first compound 0.02 µM): 0.131
relative viability ([11]; first compound 0.06325 µM): 0.0999
relative viability ([11]; first compound 0.2 µM): 0.0789
relative viability ([12]; first compound 0.002 µM): 0.684
relative viability ([12]; first compound 0.006325 µM): 0.74
relative viability ([12]; first compound 0.02 µM): 0.492
relative viability ([12]; first compound 0.06325 µM): 0.319
relative viability ([12]; first compound 0.2 µM): 0.295
relative viability ([13]; first compound 0.002 µM): 0.598
relative viability ([13]; first compound 0.006325 µM): 0.545
relative viability ([13]; first compound 0.02 µM): 0.562
relative viability ([13]; first compound 0.06325 µM): 0.457
relative viability ([13]; first compound 0.2 µM): 0.389
relative viability ([14]; first compound 0.002 µM): 0.477
relative viability ([14]; first compound 0.006325 µM): 0.545
relative viability ([14]; first compound 0.02 µM): 0.378
relative viability ([14]; first compound 0.06325 µM): 0.368
relative viability ([14]; first compound 0.2 µM): 0.109
relative viability ([15]; first compound 0.002 µM): 0.274
relative viability ([15]; first compound 0.006325 µM): 0.265
relative viability ([15]; first compound 0.02 µM): 0.265
relative viability ([15]; first compound 0.06325 µM): 0.154
relative viability ([15]; first compound 0.2 µM): 0.162
relative viability ([16]; first compound 0.002 µM): 0.288
relative viability ([16]; first compound 0.006325 µM): 0.292
relative viability ([16]; first compound 0.02 µM): 0.316
relative viability ([16]; first compound 0.06325 µM): 0.212
relative viability ([16]; first compound 0.2 µM): 0.183
relative viability ([17]; first compound 0.002 µM): 0.704
relative viability ([17]; first compound 0.006325 µM): 0.632
relative viability ([17]; first compound 0.02 µM): 0.512
relative viability ([17]; first compound 0.06325 µM): 0.337
relative viability ([17]; first compound 0.2 µM): 0.321
relative viability ([18]; first compound 0.002 µM): 0.756
relative viability ([18]; first compound 0.006325 µM): 0.697
relative viability ([18]; first compound 0.02 µM): 0.585
relative viability ([18]; first compound 0.06325 µM): 0.473
relative viability ([18]; first compound 0.2 µM): 0.468
relative viability ([19]; first compound 0.002 µM): 0.739
relative viability ([19]; first compound 0.006325 µM): 0.698
relative viability ([19]; first compound 0.02 µM): 0.488
relative viability ([19]; first compound 0.06325 µM): 0.23
relative viability ([19]; first compound 0.2 µM): 0.173
relative viability ([20]; first compound 0.002 µM): 0.756
relative viability ([20]; first compound 0.02 µM): 0.668
relative viability ([20]; first compound 0.06325 µM): 0.492
relative viability ([20]; first compound 0.2 µM): 0.159
relative viability ([21]; first compound 0.002 µM): 0.806
relative viability ([21]; first compound 0.006325 µM): 0.822
relative viability ([21]; first compound 0.02 µM): 0.569
relative viability ([21]; first compound 0.06325 µM): 0.259
relative viability ([21]; first compound 0.2 µM): 0.28
relative viability ([22]; first compound 0.002 µM): 0.596
relative viability ([22]; first compound 0.006325 µM): 0.628
relative viability ([22]; first compound 0.06325 µM): 0.577
relative viability ([22]; first compound 0.2 µM): 0.249
relative viability ([23]; first compound 0.002 µM): 0.775
relative viability ([23]; first compound 0.006325 µM): 0.619
relative viability ([23]; first compound 0.02 µM): 0.331
relative viability ([23]; first compound 0.06325 µM): 0.162
relative viability ([23]; first compound 0.2 µM): 0.176
